Marks after values point to notes of the source that are not given here.

One assay has as its system blood glucose. Kind of assay: Postprandial blood glucose response to white wheat bread test meal with test drink (Example 1). It is filed as in vivo, human. The procedure:
(§1) Four different beverages were tested by the inventors; one reference, one with only the amino acid mixture, one with only CrPic, and one combining the amino acid mixture with CrPic. The amino acids used were L-leucine, L-isoleucine, L-lysine, L-valine and L-threonine.
(§2) The reference (“Ref”) drink was made out of tap water and aroma, poured into 330 mL bottles and carbonated with a Table Top Carbonator CF-121 (Omve) set at 10 g CO2/L.
(§3) The beverage with CrPic (“CrPic”) was prepared by dissolving one thawed pellet of concentrated CrPic solution (4.0 grams) in 308.0 grams of carbonated tap water and thereafter 0.19 grams of aroma was added. Additional CO2 was added just before serving with a Soda Streamer to mimic the amount in the Ref drink.
(§4) The beverage with amino acids (“5AA”) was prepared by dissolving 6.9 grams of the amino acid mixture in 305.1 grams of carbonated tap water and thereafter 0.19 grams of aroma was added. Additional CO2 was added just before serving with a Soda Streamer to mimic the amount in the Ref drink. See Table 7 for composition of amino acid mixture.
(§5) The beverage with amino acids and CrPic (“5AA+CrPic”) was prepared by dissolving 6.9 grams of the amino acid mixture and one thawed pellet of concentrated CrPic solution (4 grams) in 301.1 grams of carbonated tap water and thereafter 0.19 grams of aroma was added. Additional CO2 was added just before serving with a Soda Streamer to mimic the amount in the Ref drink.
(§6) The test meals consisted of sandwiches made of white wheat bread (Dollarfranska, Lockarps, Lockarp, Sweden), contributing with 50 grams of available starch, and the test drinks. The white wheat bread was spread with 10 grams of butter (Bregott, Arla, Stockholm, Sweden) and 24 grams of orange marmalade (kindly provided by Önos, Procordia Food, Eslöv). The sandwiches provided 9 grams of protein and an additional amount of carbohydrates from the marmalade and butter of 14 grams. A schematic overview of the composition of the different test meals is found in Table 2.
(§7) Nineteen healthy subjects, 11 men and 8 women, aged 38-60 (51±1 years; mean±SEM) and with body mass indexes of 24-30 (27.3±0.3 kg/m2; mean±SEM) were included in the study. All subjects had normal fasting blood glucose levels (5.6±0.1 mmol/L, mean±SEM).
(§8) The test subjects were instructed to eat a dinner of own choice (but with a low content of fiber) as well as an evening meal consisting of white wheat bread and a beverage, and to eat the same meals the evening before every test occasion. After the white wheat bread meal at around 9-10 p.m., the subjects were thereafter to restrain from ingesting anything but maximum a half glass of water on the morning of the test occasion.
(§9) Upon arrival at the laboratory at 07:45 on the test day, the subjects were sat to rest before a fasting capillary blood sample was drawn. Immediately thereafter, the test meal was served and a digital timer was started. Together with the drinks, a […] sandwich meal was served, containing 64 g available carbohydrates, 9.1 g protein and 11.7 g fat. The subjects were instructed to finish the meal in 10-15 minutes and to alternate between eating and drinking. All meals were well tolerated, and the subjects had no problems finishing eating within the 10-15 min period.
(§10) Capillary blood samples were taken at fasting and 15, 30, 45, 60, 90, 120 and 180 min after the ingestion of the meal for the analysis of blood glucose and serum insulin.
(§11) Blood glucose was immediately analyzed in serum with the use of a B-glucose analyzer (Hemocue AB, Ängelholm, Sweden). Serum tubes were centrifuged for 5 min (3000 rpm) and serum was frozen at −18° C. for the measurement of insulin. The serum insulin measurement was performed on an integrated immunoassay analyzer (CODA open Microplate System, Bio-Rad Laboratories, Hercules, CA) by using an enzyme immunoassay kit (Mercodia Insulin ELISA, Mercodia AB, Uppsala, Sweden). […]

The test system of a further assay is serum insulin. As to the kind of experiment: Postprandial serum insulin response to white wheat bread test meal with test drink (Example 1). It is filed as in vivo, human. The procedure: as §1, §2, §3, §4, §5, §6, §7, §8, §9, §10, §11
The mark [1] stands for this setting: Table 5 comparison, 0-120 min, mean ± SEM, n=19 (5AA n=18).
Setting [2] is: Table 5 comparison, vs Ref meal.
The mark [3] stands for this setting: healthy subjects, carbonated water drink with sandwich meal, 0-60 min, mean ± SEM, n=19 (5AA n=18).
[4] abbreviates: healthy subjects, carbonated water drink with sandwich meal, 0-120 min, mean ± SEM, n=19 (5AA n=18).
[5] abbreviates: healthy subjects, carbonated water drink with sandwich meal, 0-180 min, mean ± SEM, n=19 (5AA n=18).

In the case of Chromium tripicolinate [CrPic], in the assay on blood glucose (0-60 min, vs Ref meal), the “Change in glucose iAUC 0-60 min as a percentage of the reference meal” value is on record as −13%. Moreover, the “Change in glucose iAUC 0-120 min as a percentage of the reference meal” value with blood glucose (0-120 min, vs Ref meal) was −6%. For the same substance, the “Change in glucose iAUC 0-180 min as a percentage of the reference meal” value with blood glucose (0-180 min, vs Ref meal) was −4%. For the same substance, the Glucose iAUC 0-120 min in the assay with blood glucose (setting [1]) amounted to 189 ± 20.7 mmol·min/L. The “Change (%) of glucose iAUC 0-120 min” value with blood glucose (setting [2]) is given as −6%. Moreover, the “Blood glucose iAUC 0-60 min” value in the assay with blood glucose (setting [3]) is 100.2 ± 9.3^ac mmol min/L. Further, in the assay with blood glucose (setting [4]), the “Blood glucose iAUC 0-120 min” value is on record as 189.1 ± 20.7^ab mmol min/L. Besides, the “Blood glucose iAUC 0-180 min” value in the assay on blood glucose (setting [5]) was 222.3 ± 25.6 mmol·min/L. In addition, the “Change in insulin iAUC 0-60 min as a percentage of the reference meal” value in the assay with serum insulin (0-60 min, vs Ref meal) is listed as −12%. Moreover, in the assay on serum insulin (0-120 min, vs Ref meal), the “Change in insulin iAUC 0-120 min as a percentage of the reference meal” value was −10%. Further, the “Change in insulin iAUC 0-180 min as a percentage of the reference meal” value in the assay with serum insulin (0-180 min, vs Ref meal) is reported as −11%. Moreover, the values for the Insulin iAUC 0-120 min in the assay with serum insulin (setting [1]) and in the assay with serum insulin (setting [4]) were 15.4 ± 1.9 nmol·min/L and 15.4 ± 1.9^a nmol · min/L, respectively. The “Change (%) of insulin iAUC 0-120 min” value in the assay with serum insulin (setting [2]) is recorded as −10%. In addition, the “Insulin iAUC 0-60 min” value with serum insulin (setting [3]) is recorded as 7.5 ± 0.9^a nmol · min/L. Moreover, the “Insulin iAUC 0-180 min” value in the assay with serum insulin (setting [5]) is given as 18.5 ± 2.6^b nmol · min/L.

Source of the values: patent publication US11937624B2, “Food composition” (INNOVAFOOD AB, priority 2011, dated 2024).
